Assay results: publication PMC11156913, “New sulfonamide-based glycosides incorporated 1,2,3-triazole as cytotoxic agents through VEGFR-2 and carbonic anhydrase inhibitory activity” (Scientific Reports, 2024)
Where two headings read alike, the source gives them in different places.

Columns and labels:
[1] = tested on: liver HepG-2 cancer cell line; test: In vitro cytotoxic activity (MTT assay), HepG-2; conditions: for IC50 / inhibition at 100 µM: Homo sapiens; for IC50: HepG2, read-out: IC50 (mean ± SD) HepG-2; for inhibition at 100 µM: HepG2, 48 h, read-out: % inhibition ± SD HepG-2
From the text: (§1) The supplemental file contained extra details.

[2] = tested on: breast MCF-7 cancer cell line; test: In vitro cytotoxic activity (MTT assay), MCF-7; type: cell-based, human; conditions: for inhibition at 100 µM / IC50: Homo sapiens; for inhibition at 100 µM: read-out: % inhibition ± SD MCF-7; for IC50: MCF-7 cells, MTT, read-out: IC50 (mean ± SD) MCF-7
From the text: as §1

[3] = tested on: colorectal HCT-116 cancer cell line; test: In vitro cytotoxic activity (MTT assay), HCT-116; type: cell-based, human; conditions: for inhibition at 100 µM / IC50: Homo sapiens; for inhibition at 100 µM: read-out: % inhibition ± SD HCT-116; for IC50: HCT-116 cells, MTT, read-out: IC50 (mean ± SD) HCT-116
From the text: as §1

[4] = tested on: lung A-549 cancer cell line; test: In vitro cytotoxic activity (MTT assay), A-549; conditions: for inhibition at 100 µM / IC50: Homo sapiens; for inhibition at 100 µM: A549, 48 h, read-out: % inhibition ± SD A-549; for IC50: A549, read-out: IC50 (mean ± SD) A-549
Method: Exponentially, cells were placed in 10^4 cells/ well for 24 h, and then add fresh medium which containing different concentration of the tested sample. Serial two-fold dilution of the tested sample were added using a multichannel pipette. […] Rinse the wells using water until no stain. After that, add 30% glacial acetic acid to all wells with shaking plates on Microplate reader (TECAN, Inc.) to measure the absorbance, using a test wavelength of 490 nm. Besides, compare the treated samples with the control cell.

[5] = tested on: retinal pigment epithelial normal RPE-1 cell line; test: Cytotoxic activity (MTT assay) against normal cell line RPE-1; type: cell-based; conditions: Homo sapiens, normal RPE-1 cells, read-out: IC50 (mean ± SD) RPE-1
From the text: Furthermore, the MTT assay was utilized to estimate the cytotoxic activity of the extremely potent derivatives 4, 7 and 9 against the normal cell line RPE-1, with the aim of examining their safety profiles (Table 1). […] They could therefore be thought of as safe cytotoxic agents.
as §1

VEGFR-2 = VEGFR-2 (Homo sapiens, UniProt P35968); test: In vitro inhibitory assessment against VEGFR-2 (ELISA, MCF-7 cell homogenates); type: cell-based; conditions: read-out: IC50 (mean ± SD) VEGFR-2
Method: (§2) There was further information in the supplemental file.
The cells were harvested and the homogenates were prepared in saline using a tight pestle homogenizer until complete cell disruption. The kit uses a double-antibody sandwich enzyme-linked immunosorbent assay (ELISA) to determine the level of human VEGFR-2 in samples. A monoclonal antibody for VEGFR-2 was pre-coated onto 96-well plates. The test samples are added to the wells and a biotinylated detection polyclonal antibody from goat specific for VEGFR-2 was added subsequently followed by washing with PBS buffer. Avidin-Biotin-Peroxidase complex was added and the unbound conjugates were washed away with PBS buffer. HRP substrate TMB was used to visualize HRP enzymatic reaction. TMB was catalyzed by HRP to produce a blue color product that changed into yellow after adding acidic stop solution. The density of yellow color is proportional to the human VEGFR-2 amount of the sample captured in the plate. The chroma of color and the concentration of the human VEGFR-2 of the samples were positively correlated and the optical density was determined at 450 nm. The level of human VEGFR-2 in samples was calculated (pg/ml) as duplicate determinations from the standard curve. Percent inhibition was calculated in comparison to control untreated cells.

hCA IX = molecular target: T1, hCA IX (Homo sapiens, UniProt Q16790); test: Carbonic anhydrase inhibition, stopped-flow CO2 hydration, hCA IX; type: biochemical; conditions: read-out: IC50 (mean ± SD) Carbonic anhydrase isoforms hCA IX
T1 construct: made in house
Method: as §2
(§3) An applied photophysics stopped-flow instrument was used for assaying the CA-catalyzed CO2 hydration activity. […] The CO2 concentrations ranged from 1.7 to 17 mM for the determination of the kinetic parameters and inhibition constants. For each inhibitor, at least six traces of the initial 5–10% of the reaction were used for determining the initial rate. The uncatalyzed rates were determined in the same manner and subtracted from the total observed rates. Stock solutions of inhibitor (0.1 mM) were prepared in distilled-deionized water, and dilutions up to 0.01 nM were done thereafter with distilled-deionized water. Inhibitor and enzyme solutions were preincubated together for 15 min at room temperature before assay in order to allow for the formation of the E-I complex. The inhibition constants were obtained by nonlinear least-squares methods using PRISM 3, and the Cheng –Prusoff equation, and represent the mean from at least three different determinations. All CA isoforms were recombinant ones obtained in-house.

hCA XII = molecular target: T2, hCA XII (Homo sapiens, UniProt O43570); test: Carbonic anhydrase inhibition, stopped-flow CO2 hydration, hCA XII; type: biochemical; conditions: read-out: IC50 (mean ± SD) Carbonic anhydrase isoforms hCA XII
T2 construct: made in house
Method: as §2, §3

T2 sequence (O43570 25-354): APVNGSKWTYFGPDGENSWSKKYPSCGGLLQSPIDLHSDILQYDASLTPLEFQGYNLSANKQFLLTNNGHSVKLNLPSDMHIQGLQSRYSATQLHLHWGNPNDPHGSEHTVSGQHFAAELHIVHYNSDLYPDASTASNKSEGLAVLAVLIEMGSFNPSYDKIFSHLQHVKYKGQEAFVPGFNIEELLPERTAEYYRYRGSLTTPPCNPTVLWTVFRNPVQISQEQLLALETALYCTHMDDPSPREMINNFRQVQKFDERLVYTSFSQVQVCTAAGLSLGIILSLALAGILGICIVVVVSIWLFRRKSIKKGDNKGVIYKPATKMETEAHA
VEGFR-2, sequence (P35968 20-1356): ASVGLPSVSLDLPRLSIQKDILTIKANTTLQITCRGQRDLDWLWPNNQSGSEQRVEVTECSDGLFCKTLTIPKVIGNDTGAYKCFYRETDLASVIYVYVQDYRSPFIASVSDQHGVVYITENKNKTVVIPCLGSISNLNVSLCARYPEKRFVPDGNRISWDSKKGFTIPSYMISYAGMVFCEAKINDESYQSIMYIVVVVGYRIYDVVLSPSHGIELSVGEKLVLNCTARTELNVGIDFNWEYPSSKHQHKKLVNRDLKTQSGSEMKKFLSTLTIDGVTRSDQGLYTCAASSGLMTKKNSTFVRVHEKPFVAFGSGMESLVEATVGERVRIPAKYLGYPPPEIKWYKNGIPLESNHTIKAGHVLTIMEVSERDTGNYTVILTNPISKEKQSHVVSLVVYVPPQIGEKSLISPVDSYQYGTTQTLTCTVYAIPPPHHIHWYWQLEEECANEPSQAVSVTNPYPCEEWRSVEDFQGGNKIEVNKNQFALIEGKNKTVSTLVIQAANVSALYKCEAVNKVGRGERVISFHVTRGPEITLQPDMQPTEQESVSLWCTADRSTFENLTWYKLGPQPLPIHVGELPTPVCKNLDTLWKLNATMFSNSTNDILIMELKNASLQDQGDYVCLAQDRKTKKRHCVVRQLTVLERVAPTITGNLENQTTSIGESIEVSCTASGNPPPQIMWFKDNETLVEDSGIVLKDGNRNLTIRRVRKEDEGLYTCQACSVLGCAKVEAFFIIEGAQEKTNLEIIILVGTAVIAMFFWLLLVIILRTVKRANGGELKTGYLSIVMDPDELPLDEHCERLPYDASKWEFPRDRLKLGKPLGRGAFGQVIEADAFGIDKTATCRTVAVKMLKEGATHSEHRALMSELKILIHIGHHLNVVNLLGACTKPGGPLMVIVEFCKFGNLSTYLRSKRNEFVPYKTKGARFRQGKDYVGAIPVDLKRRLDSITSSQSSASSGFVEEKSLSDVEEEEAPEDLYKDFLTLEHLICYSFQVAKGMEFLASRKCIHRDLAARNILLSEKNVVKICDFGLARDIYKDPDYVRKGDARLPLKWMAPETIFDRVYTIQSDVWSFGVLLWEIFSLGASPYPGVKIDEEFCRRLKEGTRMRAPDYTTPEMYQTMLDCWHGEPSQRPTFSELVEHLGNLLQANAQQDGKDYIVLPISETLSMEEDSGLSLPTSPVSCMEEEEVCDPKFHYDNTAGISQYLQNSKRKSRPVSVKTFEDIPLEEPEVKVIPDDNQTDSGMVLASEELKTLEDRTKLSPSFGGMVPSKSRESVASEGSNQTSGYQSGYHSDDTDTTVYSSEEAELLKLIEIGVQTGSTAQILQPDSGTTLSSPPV

| melting point [°C] | SMILES | percentage cytotoxicity on HepG-2 ([1]; 12.5 µM) [%] | percentage cytotoxicity on HepG-2 ([1]; 25 µM) [%] | percentage cytotoxicity on HepG-2 ([1]; 50 µM) [%] | percentage cytotoxicity on HepG-2 ([1]; 100 µM) [%] | IC50 [1] [µM] | inhibition at 100 µM ([2]; MCF7, 100 µM, 48 h) [%] | inhibition at 100 µM ([3]; HCT-116, 100 µM, 48 h) [%] | inhibition at 100 µM [4] [%] | percentage cytotoxicity on MCF-7 ([2]; 12.5 µM) [%] | percentage cytotoxicity on MCF-7 ([2]; 25 µM) [%] | percentage cytotoxicity on MCF-7 ([2]; 50 µM) [%] | percentage cytotoxicity on MCF-7 ([2]; 100 µM) [%] | IC50 ([2]; MCF7) [µM] | other results |
| --- | --- | --- | --- | --- | --- | --- | --- | --- | --- | --- | --- | --- | --- | --- | --- |
| 47 to 49 | CCCCNS(=O)(=O)c1ccc(N=[N+]=[N-])cc1 [Compound 3, 4-Azido-N-butylbenzenesulfonamide] | 3.76±5.32 | 19.08±1.88 | 49.40±1.91 | 71.40±0.91 | 57.6 ± 12.2 | 51.97 ± 0.29 | 16.7 ± 0.6 | 20.47 ± 0.15 | – | – | – | – | – | – |
| – | CCCCNS(=O)(=O)c1ccc(-n2cc(CO[C@@H]3O[C@H](COC(C)=O)[C@H](OC(C)=O)[C@H](OC(C)=O)[C@H]3OC(C)=O)nn2)cc1 [Compound 6, N-butyl-4-(4-([2,3,4,6-tetra-O-acetyl-β-D-galactopyranosyl]oxymethyl)-1H-1,2,3-triazol-1-yl)benzenesulfonamide] | – | – | – | – | – | 37.5 ± 0.52 | 0 | 32.53 ± 0.15 | – | – | – | – | – | inhibition at 100 µM [1]: 8.93 ± 0.74% |
| – | CC(=O)OC[C@H]1O[C@@H](OCc2cn(-c3ccc(S(=O)(=O)NC4CCCCC4)cc3)nn2)[C@H](OC(C)=O)[C@@H](OC(C)=O)[C@H]1OC(C)=O [Compound 7, N-cyclohexyl-4-(4-([2,3,4,6-tetra-O-acetyl-β-D-galactopyranosyl]oxymethyl)-1H-1,2,3-triazol-1-yl)benzenesulfonamide] | 84.09±0.85 | 85.07±0.05 | 85.58±0.88 | 87.60±1.73 | 10.5 ± 0.13 | 98.89 ± 0.19 | 75.7 ± 0.96 | 94.1 ± 0.51 | 30.37±3.66 | 55.90±1.44 | 88.77±2.70 | 98.89±0.19 | 20.3 ± 0.66 | percentage cytotoxicity on HCT-116 ([3]; 12.5 µM): 32.50±1.25%; percentage cytotoxicity on HCT-116 ([3]; 25 µM): 48.80±0.95%; percentage cytotoxicity on HCT-116 ([3]; 50 µM): 50.70±0.70%; percentage cytotoxicity on HCT-116 ([3]; 100 µM): 75.70±0.96%; IC50 [3]: 32 ± 0.42 µM; IC50 [5]: 82.58 ± 0.52 µM; IC50 (VEGFR-2): 1.33 ± 0.1 µM; IC50 (hCA IX): 0.066 µM; IC50 (hCA XII): 0.0076 µM; percentage cytotoxicity on A-549 ([4]; 12.5 µM): 12.60±0.82%; percentage cytotoxicity on A-549 ([4]; 25 µM): 29.31±0.02%; percentage cytotoxicity on A-549 ([4]; 50 µM): 60.23±1.47%; percentage cytotoxicity on A-549 ([4]; 100 µM): 94.10±0.51%; IC50 [4]: 20.4 ± 0.28 µM |
| – | CCCCNS(=O)(=O)c1ccc(-n2cc(CO[C@@H]3OC[C@@H](OC(C)=O)[C@H](OC(C)=O)[C@H]3OC(C)=O)nn2)cc1 [Compound 8, N-butyl-4-(4-([2,3,4-tri-O-acetyl-β-D-xylopyranosyl]oxymethyl)-1H-1,2,3-triazol-1-yl)benzenesulfonamide] | 23.15±0.43 | 32.80±2.12 | 50.73±1.45 | 69.17±0.21 | 47 ± 0.51 | 66 ± 0.69 | 41.05 ± 0.18 | 58.1 ± 0.56 | 29.56±1.66 | 36.13±2.06 | 49.80±0.41 | 66.04±0.69 | 46.49 ± 0.42 | – |
| 100 to 102 | CCCCNS(=O)(=O)c1ccc(-n2cc(CO[C@@H]3O[C@H](CO)[C@H](O)[C@H](O)[C@H]3O)nn2)cc1 [Compound 10, N-butyl-4-(4-([β-D-Galactopyranosyl]oxymethyl)-1H-1,2,3-triazol-1-yl)benzenesulfonamide] | – | – | – | – | – | 25.4 ± 0.91 | 8.91 ± 2.7 | 32 ± 0.84 | – | – | – | – | – | inhibition at 100 µM [1]: 35.9 ± 0.42% |
| 118 to 120 | O=S(=O)(NC1CCCCC1)c1ccc(-n2cc(CO[C@@H]3O[C@H](CO)[C@H](O)[C@H](O)[C@H]3O)nn2)cc1 [Compound 11, N-cyclohexyl-4-(4-([β-D-galactopyranosyl]oxymethyl)-1H-1,2,3-triazol-1-yl)benzenesulfonamide] | 44.80±0.50 | 57.70±0.87 | 62.70±0.36 | 73.85±1.06 | 16.9 ± 0.09 | 20.8 ± 0.79 | 39 ± 0.96 | 30.1 ± 0.62 | – | – | – | – | – | – |
| 160 to 162 | O=S(=O)(NC1CCCCC1)c1ccc(-n2cc(CO[C@@H]3OC[C@@H](O)[C@H](O)[C@H]3O)nn2)cc1 [Compound 13, N-cyclohexyl-4-(4-([β-D-Xylopyranosyl]oxymethyl)-1H-1,2,3-triazol-1-yl)benzenesulfonamide] | 43.30±0.66 | 38.80±0.40 | 56.20±1.29 | 75.10±0.12 | 30.01 ± 0.06 | 71.43 ± 0.03 | 70.1 ± 1.05 | 54.6 ± 0.97 | 34.87±5.91 | 48.07±4.31 | 54.73±1.88 | 71.43±2.03 | 30.83 ± 0.2 | percentage cytotoxicity on HCT-116 ([3]; 12.5 µM): 11.00±0.65%; percentage cytotoxicity on HCT-116 ([3]; 25 µM): 28.51±0.69%; percentage cytotoxicity on HCT-116 ([3]; 50 µM): 47.00±0.79%; percentage cytotoxicity on HCT-116 ([3]; 100 µM): 70.10±1.05%; IC50 [3]: 53.1 ± 0.69 µM |
| – | COc1cccc2c1C(=O)c1c(O)c3c(c(O)c1C2=O)C[C@@](O)(C(=O)CO)C[C@@H]3O[C@H]1C[C@H](N)[C@H](O)[C@H](C)O1 [Doxorubicin, reference compound] | – | – | – | – | 13.8 ± 0.45 | 100 ± 0.08 | 100 ± 0.25 | 100 ± 0.2 | – | – | – | – | 17.4 ± 0.46 | – |
| – | CCN(CC)CCNC(=O)c1c(C)[nH]c(/C=C2\C(=O)Nc3ccc(F)cc32)c1C [Sunitinib, reference compound] | – | – | – | – | – | – | – | – | – | – | – | – | – | IC50 [4]: 10.1 ± 0.5 µM |

| SMILES | melting point [°C] | percentage cytotoxicity on HepG-2 ([1]; 12.5 µM) [%] | percentage cytotoxicity on HepG-2 ([1]; 25 µM) [%] | percentage cytotoxicity on HepG-2 ([1]; 50 µM) [%] | percentage cytotoxicity on HepG-2 ([1]; 100 µM) [%] | IC50 [1] [µM] | inhibition at 100 µM ([2]; MCF7, 100 µM, 48 h) [%] | inhibition at 100 µM ([3]; HCT-116, 100 µM, 48 h) [%] | inhibition at 100 µM [4] [%] | percentage cytotoxicity on MCF-7 ([2]; 12.5 µM) [%] | percentage cytotoxicity on MCF-7 ([2]; 25 µM) [%] | percentage cytotoxicity on MCF-7 ([2]; 50 µM) [%] | percentage cytotoxicity on MCF-7 ([2]; 100 µM) [%] | IC50 ([2]; MCF7) [µM] | other results |
| --- | --- | --- | --- | --- | --- | --- | --- | --- | --- | --- | --- | --- | --- | --- | --- |
| CCCCNS(=O)(=O)c1ccc(-n2cc(CO[C@@H]3OC[C@@H](O)[C@H](O)[C@H]3O)nn2)cc1 [Compound 12, N-butyl-4-(4-([β-D-Xylopyranosyl]oxymethyl)-1H-1,2,3-triazol-1-yl)benzenesulfonamide] | 150 to 152 | 33.95±0.33 | 44.70±1.13 | 55.95±0.44 | 62.86±1.19 | 36.44 ± 0.12 | – | – | 17.8 ± 0.95 | – | – | – | – | – | inhibition at 100 µM ([2]; MCF7, 48 h): 41.4 ± 0.91%; inhibition at 100 µM ([3]; HCT-116, 48 h): 0% |
